Assay results: US20220356170A1, “SREBP INHIBITOR COMPRISING A THIOPHENE CENTRAL RING” (Capulus Therapeutics, LLC, priority 2019, published 2022)
pIC50: −log10 of the molar value. Read-outs that look alike come from different tables or passages of the source.

How the values were obtained:
[1] = In vitro % Fu, human plasma; assay type: in vitro ADME; details: read-out: In Vitro % Fu (Hu Plasma)
[2] = In vivo pharmacokinetics, oral; details: male C57 BL/6 mice
Method: (§1) The in vivo pharmacokinetic properties of Compound 1 by both intravenous and oral administration were evaluated in male C57 BL/6 mice. The in vivo pharmacokinetic properties of Compound 2 by both intravenous and oral administration were evaluated in male C57 BL/6 mice for comparison.
(§2) Animals were housed in cages with clean bedding. Certified rodent diet was provided. Water was available ad libitum. Environmental controls for the animal room were set to maintain a temperature of 22 to 25° C., humidity of 40-70% RH, and a 12-hour light /12-hour dark cycle. Normal healthy animals certified by the attending veterinarian were selected and acclimatized for minimum three days prior to initiation of study.
(§3) Procedure for Blood Withdrawal: Mice were anesthetized using gaseous anesthesia. Blood samples were collected through a capillary, guided in retro-orbital plexus. At each time point, blood samples from 3 mice of each respective group were collected. The blood samples were collected in pre-labeled tubes. 0.2 to 0.3 mL of blood were collected from each mouse. After collection of the blood samples at each time point, the samples were stored on ice prior to centrifugation. Blood samples were centrifuged within 15 minutes to separate plasma. Centrifugations was done at 1540 rcf (5000 rpm) at 4° C. for 10 minutes. The plasma was separated and transferred to pre-labeled micro-centrifuge tubes and promptly frozen at −80±10° C. until bioanalysis was performed. Samples were identified by test item, group, animal number, and collection time point.
To evaluate pharmacokinetic properties of oral delivery, nine male C57 BL/6 mice were administered 10 mg Compound 1/kg animal weight by mouth. The concentration of Compound 1 in the plasma of the animals was evaluated at 0.25, 0.5, 1, 2, 4, 6, 8, and 24 hr by taking blood samples. Compound 2 was similarly administered for comparison.

[3] = In vivo pharmacokinetics, intravenous; details: male C57 BL/6 mice, dose 2.00 mg/kg (Compound 1), 2.43 mg/kg (Compound 2); for Vd: male, C57 BL/6, mouse, iv
Method: as §1, §2, §3
To evaluate pharmacokinetic properties of intravenous delivery, nine male C57 BL/6 mice were administered 2.00 mg Compound 1/kg animal weight through the tail vein. The concentration of Compound 1 in the plasma of the animals was evaluated at 0.083, 0.25, 0.5, 1, 2, 4, 8, and 24 hr by taking blood samples from the mice. Compound 2 was similarly administered for comparison.

[4] = Log D, octanol/aqueous buffer partitioning; assay type: physicochemical; details: 1-octanol/aqueous buffer; 1-octanol/buffer
Method: Log D Procedure: The Log D of Compound 1 was evaluated by octanol/aqueous buffer partitioning. 500 μL of organic phase (1-octanol) was added to each well of a 2 mL deep well plate, followed by 500 μL of buffer and 15 μL of test compound in DMSO (0.15 mM). The plate was vortexed for 10 seconds and incubated at room temperature for 1 hr on a plate shaker at 200 rpm. After incubation, the samples were allowed to equilibrate for 20 min and then centrifuged at 4000 rpm for 30 min for complete phase separation. The distribution of test compound in buffer and octanol phase was analyzed by HPLC-UV. Log D=Log (Area of Octanol/Area of Buffer)

22RV1 = experiment: Cancer cell growth inhibition, Sulforhodamine B; assay type: cell-based; details: Homo sapiens; 22RV1 (prostate), 72 hr; Responder Cell Lines
Method: (§4) The ability of select compounds to inhibit cell growth in various cancer cell lines are evaluated. […] The cell lines shown in Table 5 have reduced growth by at least 50% at 10 uM or lower over 72 hr treatment in growth media. The cell lines shown in Table 6 have reduced growth by at least 50% with an IC50 greater than 10 uM.
(§5) Six 10-fold compound dilutions are prepared in DMSO (e.g. 10 mM, 1 mM, 100 uM, 10 uM, 1 uM, and 0.1 uM). Single data points are acquired for each concentration. The final concentration of DMSO is 0.1%. The duration of the treatment is 72 hr. Growth inhibition is measured using Sulforhodamine B in a protein staining assay. Activity of the agents is determined by evaluation the following parameters: IC50, GI50, IC10, TGI, LC50, IC90, and GI90 (where these values can be calculated).

DLD1 = experiment: Cancer cell growth inhibition, Sulforhodamine B; assay type: cell-based; details: Homo sapiens, DLD-1; DLD1 (colon), 72 hr; Non-Responder Cell Lines with IC50 >10 uM or Not Determined
Method: as §4, §5

SKBR3 = experiment: Cancer cell growth inhibition, Sulforhodamine B; assay type: cell-based; details: Homo sapiens, SK-BR-3, 72 h, SKBR3 (breast)
Method: as §4, §5

[5] = Half-life in human liver microsomes; assay type: in vitro ADME; details: NADPH, 37° C., read-out: Human LM: Half life
Method: Half-life Human Microsomes: Compound 1 was evaluated for stability in human liver microsomes. A 10 mM stock solution of Compound 1 was prepared in DMSO and diluted with water: acetonitrile (1:1) to a concentration of 1 mM. A working concentration of 100 μM was prepared by further dilution with water: acetonitrile (1:1). To make the preincubation mixture, 2.5 μL of the diluted Compound 1 was combined with 75 μL of human liver microsomes at 3.33 mg/mL, and 85 μL of 100 mM potassium phosphate buffer, and this mixture pre-incubated for 10 min at 37° C. To make the 60 minute mixture without cofactor, 32.5 μL of the preincubation mixture was combined with 17.5 μL of 100 mM potassium phosphate buffer and incubated for 60 min at 37° C. To make the 0 min sample with cofactor (NADPH), 16.25 μL of the preincubation mixture was combined with 200 μL of acetonitrile containing internal standard and 8.75 μL of cofactor (NADPH). […] To prepare the sample mixture to be evaluated, 25 μL incubation mixture was combined with 200 μL of acetonitrile containing internal standard and vortexed for 5 min at 1200 rpm, then centrifuged for 10 min at 4000 rpm. […] The sample mixture was evaluated by LC-MS/MS using 10 mM ammonium acetate with 0.1% FA as the aqueous mobile phase, and methanol as the organic mobile phase.

[6] = mouse, plasma, oral, dose 10.00 mg/kg (Compound 1), 12.01 mg/kg (Compound 2)

- fraction unbound [1]: 0.026
- bioavailability ([2]; mouse, plasma, oral vs intravenous): 59.7%
- AUC(0-inf) [2, 6]: 76300 ng·h/mL
- AUC(0-t) [2, 6]: 71200 ng·h/mL
- Cmax [2, 6]: 7840 ng/mL
- Tmax [2, 6]: 0.5 h
- half-life [2, 6]: 6.18 h
- MRT last ([2]; mouse, plasma, oral, dose 10.00 mg/kg (Compound 1), 12.01 mg/kg (Compound 2), read-out: MRT0-last): 7.6 h
- AUCExtra ([2]; oral, dose 10.00 mg/kg (Compound 1), 12.01 mg/kg (Compound 2)): 6.77%
- AUCExtra [3]: 7.27%
- Vd ([3]; plasma, read-out: Vd): 0.73 L/kg
- Vd ([3]; plasma, read-out: Vss): 0.7 L/kg
- AUC(0-inf) ([3]; mouse, plasma): 25700 ng·h/mL
- AUC(0-t) ([3]; mouse, plasma): 23800 ng·h/mL
- C0 ([3]; mouse, plasma): 4630 ng/mL
- clearance ([3]; mouse, plasma): 1.3 mL/min/kg
- half-life ([3]; mouse, plasma): 6.5 h
- MRT last ([3]; mouse, plasma, read-out: MRT0-last): 7.07 h
- logD [4]: 3.38
- pIC50 (22RV1): > 5.00
- pIC50 (DLD1): < 5.00
- pIC50 (SKBR3; Non-Responder Cell Lines with IC50 >10 uM or Not Determined): < 5.00
- pIC50 (SKBR3; Responder Cell Lines): > 5.00
- half-life at 1 µM [5]: 1.08 h
SMILES: CC(C)(O)c1cc(-c2csc(-c3ccc(C(=O)N4CCC(O)CC4)cc3Cl)c2)ccn1 [Compound 1, (3-chloro-4-(4-(2-(2-hydroxypropan-2-yl)pyridin-4-yl)thiophen-2-yl)phenyl)(4-hydroxypiperidin-1-yl)methanone]
